Test results taken from patent US4439426A, “Semisynthetic macrolidic antibiotics, intermediate compounds for their preparation and related pharmaceutical compositions containing them” (priority 1981, dated 1984).
Values after ≈ are worked out from the molar mass of the structure shown.

Key:
[1] = Stability in acidic environment at 25° C. (half-life of initial microbiological activity); type: physicochemical; conditions: aqueous solution
Procedure: Stability in acidic environnment at 25° C. of the novel
Note: t 1/2 represents the time for reducing to one half the initial powe
of the antibiotic determined by microbiological method through diffusion
on a plate using the test stock Microccocus luteus (Sarcina lutea) ATCC

[2] = test system: Acholeplasma laidlawii ATCC 23206 LRP 204; experiment: Bacteriostatic power in solid medium (MIC); type: cell-based; conditions: Acholeplasma laidlawii, ATCC23206; solid medium; read-out: Minimum inhibiting concentration
From the text: (§1) the bacteriostatic power, expressed as the minimum inhibiting concentration (MIC) against both aerobic and anaerobic, Gram positive and Gram negative, bacterial stocks: the related results are reported in the tables 2 and 3.

Bacillus subtilis LRP 25 = experiment: Bacteriostatic power in solid medium (MIC); type: cell-based; conditions: Bacillus subtilis, LRP25; solid medium; read-out: Minimum inhibiting concentration
From the text: as §1

[3] = test system: Bacteroides fragilis ATCC 23745 LRP 205; experiment: Bacteriostatic power in solid medium (MIC); type: cell-based; conditions: Bacteroides fragilis, ATCC23745; solid medium; anaerobic; read-out: Minimum inhibiting concentration
From the text: as §1

[4] = test system: Corynebacterium diphteriae LRP 24; experiment: Bacteriostatic power in solid medium (MIC); type: cell-based; conditions: Corynebacterium, LRP24; solid medium; read-out: Minimum inhibiting concentration
From the text: as §1

Escherichia coli LRP 50 = experiment: Bacteriostatic power in solid medium (MIC); type: cell-based; conditions: Escherichia coli, LRP50, read-out: Minimum inhibiting concentration
From the text: as §1

[5] = test system: Fusobacteriumnecrophroum ATCC 27852 LRP 210; experiment: Bacteriostatic power in solid medium (MIC); type: cell-based; conditions: read-out: Minimum inhibiting concentration
From the text: as §1

[6] = test system: Haemophilus influenzae ATCC 19418 LRP 213; experiment: Bacteriostatic power in solid medium (MIC); type: cell-based; conditions: Haemophilus influenzae, ATCC19418, read-out: Minimum inhibiting concentration
From the text: as §1

[7] = test system: Klelsiella pneumoniae LRP 54; experiment: Bacteriostatic power in solid medium (MIC); type: cell-based; conditions: solid medium; read-out: Minimum inhibiting concentration
From the text: as §1

[8] = test system: Micrococcus luteus ATCC 15957 LRP 193; experiment: Bacteriostatic power in solid medium (MIC); type: cell-based; conditions: Micrococcus luteus, ATCC15957; solid medium; Erythromycin resistant; read-out: Minimum inhibiting concentration
From the text: as §1

[9] = test system: Micrococcus luteus ATCC 9341 LRP 6; experiment: Bacteriostatic power in solid medium (MIC); type: cell-based; conditions: Micrococcus luteus, ATCC9341; solid medium; read-out: Minimum inhibiting concentration
From the text: as §1

[10] = test system: Mycoplasma hominis I ATCC 14027 LRP 211; experiment: Bacteriostatic power in solid medium (MIC); type: cell-based; conditions: Metamycoplasma hominis, ATCC14027; solid medium; read-out: Minimum inhibiting concentration
From the text: as §1

[11] = test system: Neisseria gonorrhoeae ATCC 19424 LRP 214; experiment: Bacteriostatic power in solid medium (MIC); type: cell-based; conditions: Neisseria gonorrhoeae, ATCC19424; solid medium; read-out: Minimum inhibiting concentration
From the text: as §1

[12] = test system: Proteus vulgaris ATCC 6380 LRP 13; experiment: Bacteriostatic power in solid medium (MIC); type: cell-based; conditions: Proteus vulgaris, ATCC6380; solid medium; read-out: Minimum inhibiting concentration
From the text: as §1

[13] = test system: Pseudomonas aeruginosa LRP 9; experiment: Bacteriostatic power in solid medium (MIC); type: cell-based; conditions: Pseudomonas aeruginosa, LRP9; solid medium; read-out: Minimum inhibiting concentration
From the text: as §1

Shigella sonnei LRP 5 = experiment: Bacteriostatic power in solid medium (MIC); type: cell-based; conditions: LRP5, read-out: Minimum inhibiting concentration
From the text: as §1

[14] = test system: Staphylococcus aureus ATCC 14154 LRP 78; experiment: Bacteriostatic power in solid medium (MIC); type: cell-based; conditions: Staphylococcus aureus, ATCC14154; solid medium; Erythromycin resistant; read-out: Minimum inhibiting concentration
From the text: as §1

[15] = test system: Staphylococcus aureus ATCC 6538P LRP 14; experiment: Bacteriostatic power in solid medium (MIC); type: cell-based; conditions: Staphylococcus aureus, ATCC6538P; solid medium; Penycilline resistant; read-out: Minimum inhibiting concentration
From the text: as §1

[16] = test system: Staphylococcus aureus ATCC 6538P LRP 39; experiment: Bacteriostatic power in solid medium (MIC); type: cell-based; conditions: Staphylococcus aureus, ATCC6538P; solid medium; read-out: Minimum inhibiting concentration
From the text: as §1

[17] = test system: Streptococcus faecalis LRP 7; experiment: Bacteriostatic power in solid medium (MIC); type: cell-based; conditions: Enterococcus faecalis, LRP7; solid medium; read-out: Minimum inhibiting concentration
From the text: as §1

[18] = test system: Streptococcus faecalis subsp. zymogenes ATCC 12958 LRP 61; experiment: Bacteriostatic power in solid medium (MIC); type: cell-based; conditions: Enterococcus faecalis, ATCC12958; solid medium; read-out: Minimum inhibiting concentration
From the text: as §1

[19] = test system: Streptococcus pneumoniae ATCC 6303 LRP 35; experiment: Bacteriostatic power in solid medium (MIC); type: cell-based; conditions: Streptococcus pneumoniae, ATCC6303; solid medium; read-out: Minimum inhibiting concentration
From the text: as §1

[20] = test system: Streptococcus pneumoniae ATCC 6303 LRP 52; experiment: Bacteriostatic power in solid medium (MIC); type: cell-based; conditions: Streptococcus pneumoniae, ATCC6303; solid medium; read-out: Minimum inhibiting concentration
From the text: as §1

[21] = test system: Streptococcus pneumoniae ATCC 6303 LRP 53; experiment: Bacteriostatic power in solid medium (MIC); type: cell-based; conditions: Streptococcus pneumoniae, ATCC6303; solid medium; read-out: Minimum inhibiting concentration
From the text: as §1

[22] = test system: Streptococcus pyogenes ATCC 8668 LRP 197; experiment: Bacteriostatic power in solid medium (MIC); type: cell-based; conditions: Streptococcus pyogenes, ATCC8668; solid medium; read-out: Minimum inhibiting concentration
From the text: as §1

[23] = test system: Streptococcus pyogenes ATCC 8668 LRP 34; experiment: Bacteriostatic power in solid medium (MIC); type: cell-based; conditions: Streptococcus pyogenes, ATCC8668; solid medium; read-out: Minimum inhibiting concentration
From the text: as §1

[24] = test system: Clostridium perfrigens ATCC 3624 LRP 206; experiment: microbe, parasite or virus in culture; type: cell-based; conditions: ATCC3624, solid medium, anaerobic, read-out: Minimum inhibiting concentration
From the text: as §1

Salmonella typhy LRP 8 = experiment: microbe, parasite or virus in culture; type: cell-based; conditions: LRP8, solid medium, read-out: Minimum inhibiting concentration
From the text: as §1

[25] = test system: Corynebacterium diphteriae LRP 24; experiment: Bacteriostatic power in liquid medium (MIC); type: cell-based; conditions: Corynebacterium, LRP24; liquid medium; read-out: Minimum inhibiting concentration
From the text: as §1

[26] = test system: Staphylococcus aureus ATCC 6538 P LRP 39; experiment: Bacteriostatic power in liquid medium (MIC); type: cell-based; conditions: Staphylococcus aureus, ATCC6538; liquid medium; read-out: Minimum inhibiting concentration
From the text: as §1

[27] = test system: Streptococcus faecalis subs. zymogenes ATCC 12958 LRP 61; experiment: Bacteriostatic power in liquid medium (MIC); type: cell-based; conditions: Enterococcus faecalis, ATCC12958; liquid medium; read-out: Minimum inhibiting concentration
From the text: as §1

[28] = test system: Streptococcus pneumoniae ATCC 6303 LRP 35; experiment: Bacteriostatic power in liquid medium (MIC); type: cell-based; conditions: Streptococcus pneumoniae, ATCC6303; liquid medium; read-out: Minimum inhibiting concentration
From the text: as §1

[29] = test system: Streptococcus pyogenes ATCC 8668 LRP 34; experiment: Bacteriostatic power in liquid medium (MIC); type: cell-based; conditions: Streptococcus pyogenes, ATCC8668; liquid medium; read-out: Minimum inhibiting concentration
From the text: as §1

[30] = test system: Corynebacterium diphteriae LRP 24; experiment: Minimum bactericidal concentration (MBC); type: cell-based
From the text: (§2) the bacterial power, expressed as the minimum bactericidal power (MBC) against some Gram positive aerobic stocks (table 5).

[31] = test system: Staphylococcus aureus ATCC 6538 P LRP 39; experiment: Minimum bactericidal concentration (MBC); type: cell-based
From the text: as §2

[32] = test system: Streptococcus faecalis subs. zymogenes LRP 61; experiment: Minimum bactericidal concentration (MBC); type: cell-based
From the text: as §2

[33] = test system: Streptococcus pneumoniae ATCC 6303 LRP 35; experiment: Minimum bactericidal concentration (MBC); type: cell-based
From the text: as §2

[34] = test system: Streptococcus pyogenes ATCC 8668 LRP 34; experiment: Minimum bactericidal concentration (MBC); type: cell-based
From the text: as §2

## CC[C@H]1OC(=O)[C@H](C)[C@@H](O[C@H]2C[C@@](C)(O)[C@@H](O)[C@H](C)O2)[C@H](C)[C@@H](O[C@@H]2O[C@H](C)C[C@H](N(C)C)[C@H]2O)[C@](C)(O)C[C@](C)(F)C(=O)[C@H](C)[C@@H](O)[C@]1(C)O [P-80205, (8S)-8-fluoroerythromycin C]
[1]; pH 2
  half-life: 1.65 h
[1]; pH 3
  half-life: 41.5 h
[2]
  MIC: 3.12 µg/mL (≈ 4.23 µM)
Bacillus subtilis LRP 25
  MIC: 0.097 µg/mL (≈ 0.131 µM)
[3]
  MIC: 0.78 µg/mL (≈ 1.06 µM)
[4]
  MIC: 0.012 µg/mL (≈ 0.0163 µM)
Escherichia coli LRP 50
  MIC: 12.5 µg/mL (≈ 16.9 µM)
[5]
  MIC: 12.5 µg/mL (≈ 16.9 µM)
[6]
  MIC: 12.5 µg/mL (≈ 16.9 µM)
[7]
  MIC: 25 µg/mL (≈ 33.9 µM)
[8]
  MIC: 25 µg/mL (≈ 33.9 µM)
[9]
  MIC: 0.012 µg/mL (≈ 0.0163 µM)
[10]
  MIC: 25 µg/mL (≈ 33.9 µM)
[11]
  MIC: 0.195 µg/mL (≈ 0.264 µM)
[12]
  MIC: 25 µg/mL (≈ 33.9 µM)
[13]
  MIC: 25 µg/mL (≈ 33.9 µM)
Shigella sonnei LRP 5
  MIC: 25 µg/mL (≈ 33.9 µM)
[14]
  MIC: 25 µg/mL (≈ 33.9 µM)
[15]
  MIC: 0.097 µg/mL (≈ 0.131 µM)
[16]
  MIC: 0.097 µg/mL (≈ 0.131 µM)
[17]
  MIC: 0.097 µg/mL (≈ 0.131 µM)
[18]
  MIC: 0.097 µg/mL (≈ 0.131 µM)
[19]
  MIC: 0.024 µg/mL (≈ 0.0325 µM)
[20]
  MIC: 0.012 µg/mL (≈ 0.0163 µM)
[21]
  MIC: 0.024 µg/mL (≈ 0.0325 µM)
[22]
  MIC: 0.024 µg/mL (≈ 0.0325 µM)
[23]
  MIC: 0.024 µg/mL (≈ 0.0325 µM)
[24]
  MIC: 6.25 µg/mL (≈ 8.47 µM)
Salmonella typhy LRP 8
  MIC: 12.5 µg/mL (≈ 16.9 µM)
[25]
  MIC: 0.049 µg/mL (≈ 0.0664 µM)
[26]
  MIC: 0.195 µg/mL (≈ 0.264 µM)
[27]
  MIC: 0.39 µg/mL (≈ 0.529 µM)
[28]
  MIC: 0.097 µg/mL (≈ 0.131 µM)
[29]
  MIC: 0.049 µg/mL (≈ 0.0664 µM)
[30]
  MBC/MIC: 8
[30]; Corynebacterium, LRP24, read-out: Minimum bactericidal concentration (MBC)
  MBC: 0.39 µg/mL (≈ 0.529 µM)
[31]
  MBC/MIC: 16
[31]; Staphylococcus aureus, ATCC6538, read-out: Minimum bactericidal concentration (MBC)
  MBC: 3.12 µg/mL (≈ 4.23 µM)
[32]
  MBC/MIC: > 8
[32]; Enterococcus faecalis, read-out: Minimum bactericidal concentration (MBC)
  MBC: > 3.12 µg/mL
[33]
  MBC/MIC: 2
[33]; Streptococcus pneumoniae, ATCC6303, read-out: Minimum bactericidal concentration (MBC)
  MBC: 0.195 µg/mL (≈ 0.264 µM)
[34]
  MBC/MIC: 16
[34]; Streptococcus pyogenes, ATCC8668, read-out: Minimum bactericidal concentration (MBC)
  MBC: 0.78 µg/mL (≈ 1.06 µM)
